Residues, ends and D or L forms follow the SMILES beside them. *: point of attachment. Fmoc = O=C(OCC1c2ccccc2-c2ccccc21)*
Tests used:
[1] = tested on: cathepsin L/B; test: Hydrolysis of cathepsin L/B substrate Z-Phe-Arg-NHMec by B cell lysosomal fractions; type: biochemical, human; settings: Fig 3b
Procedure: (§1) The invention will now be described by reference to the following Examples and Figures wherein • Figure 1: Processing of TTCF by a leupeptin-insensitive cysteine endopeptidase activity. (a) TTCF was digested in vitro in the presence of disrupted lysosomes (1-2 µg) in the presence or absence of iodoacetamide (1 mM), leupeptin, E64 or pepstatin (each at 0.1 mg/ml). Digestions were in 0.1 M NH4 acetate at pH 4.5 or Na2HPO4, pH 6.0 or 7.0. After 4 hours at 37°C, the reactions were separated by Tris-tricine SDS-PAGE and stained with Coomassie Blue. (b) Cleavage sites: TTCF digestion products were separated by SDS PAGE and electrophoretically transferred to nitrocellulose membrane. Individual fragments numbered 1-6 were subjected to 5 cycles of Edman degradation. N-terminal sequence obtained is shown in bold following upstream residues from TTCF (tetanus toxin numbering). […] (c) Each fraction was analysed by SDS-PAGE and Western blotting. […] Release of 7-amino-4-methyl coumarin was measured after 10, 20 or 30 minutes. […] At different times the cells were washed, fixed in 0.05 % glutaraldehyde and antigen presentation measured using proliferation of different autologous TTCF-specific T cell clones. c, AEP pre-processing of TTCF speeds antigen presentation. […] Presentation was measured after 60 minutes of antigen pulsing using EBV B cells. […]

[2] = tested on: AEP; test: Hydrolysis of asparagine peptide substrate by B cell lysosomal fractions; type: biochemical, human; settings: increasing concentrations of peptide, Fig 3b
Procedure: as §1

C[C@H](NC(=O)OCC1c2ccccc2-c2ccccc21)C(=O)N[C@@H](CCC(=O)O)C(=O)N[C@@H](CC(N)=O)C(=O)N[C@@H](CCCCN)C(N)=O [AENK, Ala-Glu-Asn-Lys-NH] (Fmoc-AENK-NH2)
hydrolysis of the cathepsin L/B substrate, Z-Phe-Arg-NHMec [1]: had no effect | cleavage of Z-Val-Ala-Asn-NHMec [2]: completely blocked

— EP1066315B1 (University of Dundee, priority 1998, dated 2008)
